Test results published in patent publication US20100047371A1, “COMPOSITIONS AND METHODS FOR ORAL CANCER CHEMOPREVENTION USING BERRY PREPARATIONS AND EXTRACTS” (priority 2006, published 2010).

System: Human Oral Mucosa Explant Tissues
Assay: Effect of final gel pH on anthocyanin uptake into human oral mucosa explant tissues
Type: in vitro ADME
Settings: 10% w/w FBR gel
Method: Anthocyanin content in sera, saliva, and tissue explants was evaluated by an HPLC-MS assay. The respective samples (sera, saliva or tissue homogenates) were dissolved in 90% solvent A (water plus 1% formic acid) and 10% solvent B (acetonitrile plus 1% formic acid) and then separated on a Symmetry C18 reversed-phase column and analyzed using a Waters 2695 gradient HPLC separation module equipped with a 996 photodiode-array (PDA) UV/visible absorbance detector (Milford, Mass.). The solvent system consisted of a step gradient from 90% A to 50% B over 15 minutes, and the absorption spectra were recorded from 200-800 nm with the inline PDA detector. Mass spectrometry was conducted on a quadrupole ion tunnel mass spectrometer equipped with a Z-spray ESI source. Explant protein levels were determined by the Lowry method, using bovine γ-globulin as the standard protein [Lippman et al., 1993]. Tissue explants, specifically human oral mucosal explants, were used to determine the in vitro effects of FBR content and pH on anthocyanin uptake. Human oral tissues for the tissue explant studies were obtained from consenting volunteers who were undergoing elective oral surgery procedures. To confirm “no pathologic diagnosis”, a portion of each of these tissues was submitted for light microscopic evaluation. […] Tissues for explant experiments were immediately placed in an artificial saliva transport medium, which also served as the incubation medium for the gel absorption studies. The composition of the artificial saliva used for tissue transport and incubation was (final concentrations): sodium carboxymethylcellulose (0.5%), sorbitol (165 mM), NaCl (14 mM), KCl (16 mM), calcium chloride dehydrate (1.0 mM), MgCl2 (0.63 mM), Trizma hydrochloride (2.0 mM). Tissues from eight donors were used for preliminary studies to compare the penetration of anthocyanins from the 5% berry gel and the 10% FBR gel, both at a final pH of 6.5. In order to account for heterogeneity among human donors, tissue samples were hemisected. One tissue portion treated with 5% and the other with 10% FBR gels. One gram of gel (containing either 5% or 10% w/w FBR) was placed on the epithelial surface of the explant, followed by gently rubbing of the site for 30 seconds to facilitate uptake. Explants were then placed into artificial saliva, incubated for 30 minutes (37° C., 5% CO2), and then frozen at −80° C. until HPLC-mass spectroscopy analyses as previously reported [Rodrigo et al., in press]. Tissue preparation for HPLC analyses consisted of homogenization of the entire oral mucosal specimen, removal of an aliquot for sample protein level determination, followed by the addition of collagenase type II (0.1 mg/mL, GIBCO, Grand Island, N.Y.) and 1% formic acid. Samples were then placed on a Sep Pack (Millipore, Billerica, Mass.), eluted with methanol, and dried under argon gas. Additional oral mucosal explant studies were conducted to compare the effect of FBR gel pH on absorption into oral mucosal explants. Tissues from eleven donors were used for these studies, and handling was as described above with the exception that all gels contained 10% w/w FBR and were formulated at a final pH of 3.5 or 6.5. […] Large differences (up to 15-fold) in detectable anthocyanin levels were found in the gel treated donor tissues; findings that likely reflect the extensive heterogeneity within human tissues that affects tissue penetrative abilities.

[1] = average of eleven explant samples

Anthocyanin uptake, Gel pH 3.5, Avg. ± SEM [1]: 1.9 pmol per mg tissue | Anthocyanin uptake, Gel pH 6.5, Avg. ± SEM [1]: 5.3 pmol per mg tissue | % change 3.5 to 6.5, Avg. ± SEM (average of explant samples): 89.0% | % change 3.5 to 6.5 (explant sample 001): 319.4% | Anthocyanin uptake, Gel pH 3.5 (explant sample 001): 7.4 pmol per mg tissue | Anthocyanin uptake, Gel pH 6.5 (explant sample 001): 30.9 pmol per mg tissue | % change 3.5 to 6.5 (explant sample 002): 427.3% | Anthocyanin uptake, Gel pH 3.5 (explant sample 002): 0.6 pmol per mg tissue | Anthocyanin uptake, Gel pH 6.5 (explant sample 002): 2.9 pmol per mg tissue | % change 3.5 to 6.5 (explant sample 003): −19.7% | Anthocyanin uptake, Gel pH 3.5 (explant sample 003): 1.8 pmol per mg tissue | Anthocyanin uptake, Gel pH 6.5 (explant sample 003): 1.4 pmol per mg tissue | % change 3.5 to 6.5 (explant sample 004): −66.4% | Anthocyanin uptake, Gel pH 3.5 (explant sample 004): 1.3 pmol per mg tissue | Anthocyanin uptake, Gel pH 6.5 (explant sample 004): 0.4 pmol per mg tissue | % change 3.5 to 6.5 (explant sample 005): −61.8% | Anthocyanin uptake, Gel pH 3.5 (explant sample 005): 0.3 pmol per mg tissue | Anthocyanin uptake, Gel pH 6.5 (explant sample 005): 0.1 pmol per mg tissue | % change 3.5 to 6.5 (explant sample 006): 330.8% | Anthocyanin uptake, Gel pH 3.5 (explant sample 006): 2.3 pmol per mg tissue | Anthocyanin uptake, Gel pH 6.5 (explant sample 006): 10.1 pmol per mg tissue | % change 3.5 to 6.5 (explant sample 007): −14.6% | Anthocyanin uptake, Gel pH 3.5 (explant sample 007): 0.4 pmol per mg tissue | Anthocyanin uptake, Gel pH 6.5 (explant sample 007): 0.4 pmol per mg tissue | Anthocyanin uptake, Gel pH 3.5 (explant sample 008): 0.0 pmol per mg tissue | Anthocyanin uptake, Gel pH 6.5 (explant sample 008): 1.9 pmol per mg tissue | % change 3.5 to 6.5 (explant sample 009): 256.9% | Anthocyanin uptake, Gel pH 3.5 (explant sample 009): 2.9 pmol per mg tissue | Anthocyanin uptake, Gel pH 6.5 (explant sample 009): 10.3 pmol per mg tissue | % change 3.5 to 6.5 (explant sample 010): −92.9% | Anthocyanin uptake, Gel pH 3.5 (explant sample 010): 2.0 pmol per mg tissue | Anthocyanin uptake, Gel pH 6.5 (explant sample 010): 0.1 pmol per mg tissue | % change 3.5 to 6.5 (explant sample 011): −100% | Anthocyanin uptake, Gel pH 3.5 (explant sample 011): 2.1 pmol per mg tissue | Anthocyanin uptake, Gel pH 6.5 (explant sample 011): 0.0 pmol per mg tissue
SMILES: OC[C@H]1O[C@@H](Oc2cc3c(O)cc(O)cc3[o+]c2-c2ccc(O)c(O)c2)[C@H](O[C@@H]2OC[C@@H](O)[C@H](O)[C@H]2O)[C@@H](O)[C@@H]1O.[Cl-] [Cyanidin 3-sambubioside, cyanidin 3-sambubioside]
